Assay results published in the supplement of paper PMC10307832.

Experiments:
Test in all cases: relative viability (nuclei count vs DMSO), 5 days (fraction); higher = more cells survive
Bicalutamide + Lapatinib = compound: CC(O)(CS(=O)(=O)c1ccc(F)cc1)C(=O)Nc1ccc(C#N)c(C(F)(F)F)c1 [Bicalutamide] + CS(=O)(=O)CCNCc1ccc(-c2ccc3ncnc(Nc4ccc(OCc5cccc(F)c5)c(Cl)c4)c3c2)o1 [Lapatinib] (partner 2 µM)
How it was run: (§1)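 Relative viability was taken as the ratio of nuclei in treated wells to nuclei in vehicle wells. Lung cancer cell lines in 1536-well plates received compounds by pin tool one day after seeding, either one drug alone or a fixed anchor-drug dose plus five library-drug doses (not always all listed) in √10 steps. Nuclei were counted on 4× images after 5 days of treatment, and values are medians of duplicate plates.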

Bromopyruvate + OSI-027 = compound: C(C(=O)C(=O)O)Br [Bromopyruvate] + COc1cccc2cc(-c3nc([C@H]4CC[C@H](C(=O)O)CC4)n4ncnc(N)c34)[nH]c12 [OSI-027] (partner 0.5 µM)
How it was run: as §1

[1] = compound: CC(O)(CS(=O)(=O)c1ccc(F)cc1)C(=O)Nc1ccc(C#N)c(C(F)(F)F)c1 [Bicalutamide] + CCNC(=O)c1noc(-c2cc(C(C)C)c(O)cc2O)c1-c1ccc(CN2CCOCC2)cc1 [Luminespib] (partner 0.01 µM)
How it was run: as §1

Bicalutamide + AZD7762 = compound: CC(O)(CS(=O)(=O)c1ccc(F)cc1)C(=O)Nc1ccc(C#N)c(C(F)(F)F)c1 [Bicalutamide] + NC(=O)Nc1cc(-c2cccc(F)c2)sc1C(=O)N[C@H]1CCCNC1 [AZD7762] (partner 0.2 µM)
How it was run: as §1

| Cell Line | relative viability (Bicalutamide + Lapatinib; first compound 0.08 µM) | relative viability (Bicalutamide + Lapatinib; first compound 0.253 µM) | relative viability (Bicalutamide + Lapatinib; first compound 0.8 µM) | relative viability (Bicalutamide + Lapatinib; first compound 2.53 µM) | relative viability (Bromopyruvate + OSI-027; first compound 1 µM) | relative viability (Bromopyruvate + OSI-027; first compound 3.162 µM) | relative viability (Bromopyruvate + OSI-027; first compound 10 µM) | relative viability (Bromopyruvate + OSI-027; first compound 31.62 µM) | relative viability (Bromopyruvate + OSI-027; first compound 100 µM) | relative viability ([1]; first compound 0.08 µM) | relative viability ([1]; first compound 0.253 µM) | relative viability ([1]; first compound 0.8 µM) | relative viability ([1]; first compound 2.53 µM) | relative viability (Bicalutamide + AZD7762; first compound 0.08 µM) | relative viability (Bicalutamide + AZD7762; first compound 0.253 µM) | relative viability (Bicalutamide + AZD7762; first compound 0.8 µM) | relative viability (Bicalutamide + AZD7762; first compound 2.53 µM) |
| --- | --- | --- | --- | --- | --- | --- | --- | --- | --- | --- | --- | --- | --- | --- | --- | --- | --- |
| A549 | 1.12 | 0.959 | 1.04 | 0.778 |  |  |  |  |  |  |  |  |  |  |  |  |  |
| COR-L23 | 0.941 | 0.921 | 1.2 | 0.998 | 0.817 | 0.879 | 0.977 | 0.705 | 0.401 | 0.718 | 0.699 | 0.764 | 0.649 |  |  |  |  |
| COR-L 105 | 0.333 | 0.353 | 0.39 | 0.311 | 0.563 | 0.701 | 0.712 | 0.671 | 0.639 | 1.04 | 0.721 | 0.911 | 0.652 |  |  |  |  |
| Calu-6 | 1.16 | 1.01 | 1.12 | 1.08 |  |  |  |  |  |  |  |  |  |  |  |  |  |
| ChaGo-K-1 |  |  |  |  | 0.715 | 0.521 | 0.629 | 0.578 | 0.493 | 0.704 | 0.717 | 0.513 | 0.622 | 0.883 | 0.792 | 0.944 | 0.858 |
| EBC-1 | 0.209 | 0.206 | 0.211 | 0.214 |  |  |  |  |  |  |  |  |  |  |  |  |  |
| HCC-78 | 0.74 | 0.977 | 0.91 | 0.682 | 0.379 | 0.326 | 0.403 | 0.355 | 0.345 |  |  |  |  | 0.758 | 0.598 | 0.696 | 0.611 |
| HCC-366 | 1.09 | 1.05 | 1.12 | 1 | 0.836 | 1.05 | 0.812 | 0.979 | 1.01 |  |  |  |  | 0.392 | 0.229 | 0.332 | 0.281 |
| IA-LM | 0.969 | 0.958 | 1.02 | 0.711 |  |  |  |  |  |  |  |  |  |  |  |  |  |
| LCLC-103H |  |  |  |  | 0.408 | 0.487 | 0.528 | 0.451 | 0.494 | 1.02 | 0.906 | 1.04 | 0.928 | 0.829 | 0.791 | 0.8 | 0.814 |
| NCI-H441 |  |  |  |  | 0.709 | 0.693 | 0.76 | 0.609 | 0.571 | 0.291 | 0.377 | 0.356 | 0.411 | 1.06 | 1.08 | 1.13 | 1.16 |
| NCI-H520 | 0.817 | 0.674 | 1.01 | 0.779 | 0.243 | 0.259 | 0.25 | 0.23 | 0.289 | 0.232 | 0.22 | 0.274 | 0.205 |  |  |  |  |
| NCI-H522 |  |  |  |  | 0.74 | 0.715 | 0.684 | 0.718 | 0.706 | 1.07 | 1.14 | 1.45 | 1.17 | 0.762 | 0.849 | 0.916 | 0.808 |
| NCI-H661 | 0.482 | 0.493 | 0.447 | 0.493 | 0.719 | 0.67 | 0.685 | 0.64 | 0.749 | 0.938 | 0.94 | 0.928 | 0.954 |  |  |  |  |
| NCI-H1299 | 0.92 | 0.966 | 0.971 | 0.929 |  |  |  |  |  |  |  |  |  |  |  |  |  |
| NCI-H1563 | 1.19 | 0.853 | 0.984 | 0.776 | 0.747 | 0.75 | 0.758 | 0.77 | 0.763 | 0.529 | 0.552 | 0.567 | 0.515 |  |  |  |  |
| NCI-H1648 |  |  |  |  | 0.263 | 0.263 | 0.251 | 0.25 | 0.259 |  |  |  |  |  |  | 0.736 | 0.686 |
| NCI-H1650 | 0.905 | 0.655 | 1.09 | 0.74 | 0.642 | 0.592 | 0.669 | 0.757 | 0.464 | 0.181 | 0.165 | 0.171 | 0.196 |  |  |  |  |
| NCI-H1703 | 1.16 | 1.03 | 1.18 | 0.643 |  |  |  |  |  |  |  |  |  | 0.123 | 0.117 | 0.162 | 0.174 |
| NCI-H2009 | 1.23 | 0.997 | 1.2 | 0.758 | 0.6 | 0.66 | 0.669 | 0.545 | 0.305 | 1.06 | 1.01 | 0.987 | 1.04 |  |  |  |  |
| NCI-H2023 | 0.727 | 0.866 | 1.21 | 0.648 | 0.391 | 0.39 | 0.49 | 0.388 | 0.374 | 0.868 | 0.703 | 1 | 0.634 |  |  |  |  |
| NCI-H2228 | 0.707 | 1.04 | 1.23 | 1.02 | 0.539 | 0.554 | 0.755 | 0.518 | 0.551 | 0.231 | 0.241 | 0.169 | 0.14 |  |  |  |  |
| SK-LU-1 | 0.95 | 0.828 | 0.997 | 0.854 | 0.378 | 0.316 | 0.303 | 0.317 | 0.305 | 0.189 | 0.188 | 0.217 | 0.188 |  |  |  |  |
| SK-MES-1 | 0.48 | 0.456 | 0.472 | 0.46 | 0.654 | 0.552 | 0.667 | 0.603 | 0.68 | 0.609 | 0.736 | 0.97 | 0.709 |  |  |  |  |
| SW 1573 | 1.03 | 0.909 | 1.3 | 1.11 | 0.751 | 0.674 | 0.73 | 0.475 | 0.0547 | 0.506 | 0.213 | 0.209 | 0.181 |  |  |  |  |
| UMC-11 | 0.951 | 0.723 | 1.12 | 0.899 | 0.518 | 0.452 | 0.491 | 0.533 | 0.501 | 1.07 | 1.03 | 1.14 | 0.949 |  |  |  |  |
